Results as given in patent US9371265B2, “Compositions and methods related to inhibitors of JAK kinase” (EP PHARMA, INC., priority 2012, dated 2016).

Assays:
[1] = target: PAK1 (Homo sapiens, UniProt Q13153); test: Kinase panel: PAK1; type: biochemical; details: 10 μM EP009
Method: (§1) Achieving JAK3 selectivity remains a significant challenge in the development of new small molecules for the treatment of cancer and immune-derived diseases. As such, the inventors employed cell-based screening assays of small-molecule libraries based upon the chemical scaffold of the established JAK3 inhibitor NC1153 (Stepkowski et al., J Immunol. (2005), 175(7):4236-4246) EP009 (FIG. 2A) was selected as a lead compound due to improved intrinsic stability (>95% purity in various solvents at 37° C. for 24 hours; FIG. 3) and high-degree of JAK3 selectivity. To test JAK3 versus JAK2 specificity of EP009, the IL-2/JAK3-dependent Kit225, and IL-3/JAK2-dependent BaF/3 cell lines were used. Kit225 and BaF/3 cells growing in the presence of IL-2 or IL-3, respectively, were treated with ascending concentrations of EP009 for 12 hours and cellular JAK3 and JAK2 tyrosine phosphorylation levels detected by Western blot analysis (FIGS. 2B and 2C). Following densitometric analysis, EP009 was determined to dose-dependently reduce IL-2-mediated JAK3 tyrosine phosphorylation with a cellular 50% inhibitory concentration (IC50) between 10 and 20 μM (FIG. 2B). […] To globally evaluate specificity, the inhibitory activity of EP009 was measured against a panel of protein kinases distributed throughout the kinome using the scanEDGE profiling service (KINOMEscan). […]

[2] = system: normal human naïve PBMCs; test: Naive PBMC viability (MTS); type: cell-based; details: 72 hours, concentrations giving complete loss of JAK3-dependent cell viability (0-10 μM)
Method: (§2) FIGS. 2A-2F. Selective inhibition of JAK3 by EP009 results in loss of JAK3-dependent tumor cell line viability with no detectable off-target effects in key cell types. (A) Chemical structure of EP009 (M.W. 224.34). (B) Kit225 or (C) BaF/3 cells cultured in the presence of IL-2 or IL-3, respectively, were treated with vehicle (PBS; lane a) or increasing amounts of EP009 (0-50 μM; lanes b-h) for 12 hours. Cells were then lysed, clarified, and immunoprecipitated (IP) with anti-JAK3 (α-JAK3) or anti-JAK2 (α-JAK2), and subjected to Western blot (WB) analysis with anti-phosphotyrosine (α-pY). Blots were stripped and reprobed with corresponding antibody to verify equivalent protein loading. […] (E) Kit225 or BaF/3 cells were cultured with increasing amounts of EP009 (0-10 μM) for 72 hours and cell viability measured with the MTS tetrazolium salt assay. Values represent mean absorbance (OD490-OD650 nm) normalized to vehicle (PBS) treated control cells, while error bars represent the standard deviation (n=3). (F) HEK293, HEPG2, or naïve primary human PBMCs were cultured with increasing amounts of EP009 (0-10 μM) for 72 hours and cell viability measured with the MTS tetrazolium salt assay. Values represent mean absorbance (OD490-OD650 nm) normalized to vehicle (PBS) treated control cells, while error bars represent the standard deviation (n=3). […]

[3] = target: PIK3CG (Homo sapiens, UniProt P48736); test: Kinase panel: PIK3CG; type: biochemical; details: 10 μM EP009
Method: as §1

[4] = system: p70 S6 kinase; test: Phospho-p70 S6 kinase in SU-DHL-1 cells (Luminex multiplex); type: cell-based, human; details: 24 hours
Method: FIGS. 8A-8F. Effect of EP009 on ALCL cells is mediated through selective activation of ERK1/2 and JNK1/2 stress signaling pathways, and inhibition of p70 S6 kinase growth signaling pathways. SU-DHL-1 cells were treated with vehicle (PBS) or increasing amounts of EP009 (0-50 μM) for 24 hours. Cells were then lysed, clarified, and subjected to Luminex multiplex analysis to detect phosphorylated (A) ERK1/2, (B) JNK1/2, (C) p70 S6 kinase, (D) IκBα, (E) CREB, and (F) p38. Values represent mean fluorescence intensity (MFI) normalized to corresponding GAPDH MFI, while error bars represent the standard deviation (n=2). Representative data from two independent experiments are shown. Statistical significance was determined using Student's t-test. (*, p<0.05).
The MILLIPLEX MAP 8-plex Multi-Pathway Signaling Phosphoprotein kit (Millipore) was used to detect phosphorylated ERK1/2 (Thr185/Tyr187), STAT3 (Ser727), JNK1/2 (Thr183/Tyr185), p70 S6 kinase (Thr412), IκBα (Ser32), STAT5A/B (Tyr694/699), CREB (Ser133), and p38 (Thr180/Tyr182). The MILLIPLEX MAP 5-plex STAT Phosphoprotein kit (Millipore) was used to detect phosphorylated STAT1 (Tyr701), STAT2 (Tyr690), STAT3 (Tyr705), STAT5A/B (Tyr694/699), and STAT6 (Tyr641). The MILLIPLEX MAP Human Apoptosis 3-plex kit (Millipore) was used to detect cleaved PARP, cleaved Caspase 3, and total GAPDH for protein normalization.

[5] = system: HEK293; test: HEK293 cell viability (MTS); type: cell-based, human; details: 72 hours, concentrations giving complete loss of JAK3-dependent cell viability (0-10 μM)
Method: as §2

PAK1, sequence (Q13153 whole entry): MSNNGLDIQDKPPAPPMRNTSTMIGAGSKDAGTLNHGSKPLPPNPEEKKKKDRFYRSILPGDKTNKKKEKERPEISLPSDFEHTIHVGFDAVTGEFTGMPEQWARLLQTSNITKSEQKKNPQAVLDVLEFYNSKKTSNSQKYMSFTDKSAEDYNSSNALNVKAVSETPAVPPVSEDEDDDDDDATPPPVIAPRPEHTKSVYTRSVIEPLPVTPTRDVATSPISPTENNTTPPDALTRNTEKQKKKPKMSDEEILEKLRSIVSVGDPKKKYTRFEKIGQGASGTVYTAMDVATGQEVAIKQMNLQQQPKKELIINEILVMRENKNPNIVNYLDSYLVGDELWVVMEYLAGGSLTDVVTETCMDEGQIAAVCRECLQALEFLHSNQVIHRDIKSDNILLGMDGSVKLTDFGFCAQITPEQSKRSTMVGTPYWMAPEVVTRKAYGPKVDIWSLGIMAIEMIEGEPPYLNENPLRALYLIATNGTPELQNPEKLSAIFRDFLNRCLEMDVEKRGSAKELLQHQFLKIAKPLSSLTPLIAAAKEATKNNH
PIK3CG, sequence (P48736 whole entry): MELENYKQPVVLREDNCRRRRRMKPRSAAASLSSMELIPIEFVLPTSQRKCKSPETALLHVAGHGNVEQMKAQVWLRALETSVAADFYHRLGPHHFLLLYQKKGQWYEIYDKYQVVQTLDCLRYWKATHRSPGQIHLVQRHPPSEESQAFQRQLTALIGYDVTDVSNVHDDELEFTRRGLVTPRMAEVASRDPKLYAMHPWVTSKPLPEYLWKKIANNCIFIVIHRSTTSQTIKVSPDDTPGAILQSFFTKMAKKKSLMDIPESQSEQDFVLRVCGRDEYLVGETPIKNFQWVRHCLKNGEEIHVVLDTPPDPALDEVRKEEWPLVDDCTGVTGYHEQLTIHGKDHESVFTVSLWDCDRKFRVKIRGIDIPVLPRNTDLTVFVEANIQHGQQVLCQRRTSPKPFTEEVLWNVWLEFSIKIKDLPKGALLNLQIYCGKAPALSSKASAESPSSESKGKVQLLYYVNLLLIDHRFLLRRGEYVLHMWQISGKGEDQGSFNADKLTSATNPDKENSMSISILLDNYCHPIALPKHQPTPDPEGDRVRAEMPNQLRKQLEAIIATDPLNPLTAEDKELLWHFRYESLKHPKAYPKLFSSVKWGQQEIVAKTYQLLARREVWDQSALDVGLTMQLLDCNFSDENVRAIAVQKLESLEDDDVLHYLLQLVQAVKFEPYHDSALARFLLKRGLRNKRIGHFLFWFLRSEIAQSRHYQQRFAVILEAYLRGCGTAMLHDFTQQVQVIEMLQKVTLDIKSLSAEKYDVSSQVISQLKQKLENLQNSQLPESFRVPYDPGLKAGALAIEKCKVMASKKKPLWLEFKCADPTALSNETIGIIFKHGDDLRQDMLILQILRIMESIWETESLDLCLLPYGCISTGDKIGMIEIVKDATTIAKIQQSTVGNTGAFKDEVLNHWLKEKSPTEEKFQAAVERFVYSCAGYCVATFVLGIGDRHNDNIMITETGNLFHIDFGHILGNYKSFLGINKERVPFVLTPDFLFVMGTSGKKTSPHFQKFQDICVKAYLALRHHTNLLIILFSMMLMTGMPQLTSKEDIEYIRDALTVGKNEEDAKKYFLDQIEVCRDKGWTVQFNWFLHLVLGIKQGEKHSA

Structure (SMILES): C=C1CCCCCCCCCC(CO)C1=O (centres unmarked) [EP009, 2-(Hydroxymethyl)-12-methylenecyclododecanone]
- Kinase Activity (% of Control) [1]: 100 % of Control
- effect on normal human naïve PBMC viability [2]: no detectable loss of cell viability
- Kinase Activity (% of Control) [3]: 75 % of Control
- constitutive phosphorylation of p70 S6 kinase [4]: decreased in a dose-dependent manner
- effect on HEK293 cell viability [5]: no detectable loss of cell viability
